Measured values taken from ChEMBL document CHEMBL4725311, “Discovery of potent, orally bioavailable in vivo efficacious antagonists of the TLR7/8 pathway” (Bioorg Med Chem Lett, 2020).

Key:
[1] = AUC in BALB/c mouse at 20 mg/kg, po; format: ADME, organism-based; set-up: dose 20 mg/kg; conditions: in vivo
[2] = Cmax in BALB/c mouse at 20 mg/kg, po; format: ADME, organism-based; set-up: route oral, dose 20 mg/kg; conditions: in vivo
[3] = Clearance in BALB/c mouse at 5 mg/kg, iv; format: ADME, organism-based; conditions: in vivo
[4] = Volume of distribution at steady state in BALB/c mouse at 5 mg/kg, iv; format: ADME, organism-based; conditions: in vivo, read-out: Vdss
[5] = Terminal half life in BALB/c mouse at 5 mg/kg, iv; format: ADME, organism-based; conditions: in vivo, read-out: beta t1/2 (converted)
[6] = Oral bioavailability in BALB/c mouse at 20 mg/kg; format: ADME, organism-based; conditions: in vivo
Toll-like receptor 7 = target: T1, Toll-like receptor 7 (Mus musculus, UniProt P58681); test: Antagonist activity at TLR7 in mouse splenocytes assessed as inhibition of ssRNA40-induced IL6 production; format: cell-based, Splenocyte
T1 sequence (P58681 whole entry): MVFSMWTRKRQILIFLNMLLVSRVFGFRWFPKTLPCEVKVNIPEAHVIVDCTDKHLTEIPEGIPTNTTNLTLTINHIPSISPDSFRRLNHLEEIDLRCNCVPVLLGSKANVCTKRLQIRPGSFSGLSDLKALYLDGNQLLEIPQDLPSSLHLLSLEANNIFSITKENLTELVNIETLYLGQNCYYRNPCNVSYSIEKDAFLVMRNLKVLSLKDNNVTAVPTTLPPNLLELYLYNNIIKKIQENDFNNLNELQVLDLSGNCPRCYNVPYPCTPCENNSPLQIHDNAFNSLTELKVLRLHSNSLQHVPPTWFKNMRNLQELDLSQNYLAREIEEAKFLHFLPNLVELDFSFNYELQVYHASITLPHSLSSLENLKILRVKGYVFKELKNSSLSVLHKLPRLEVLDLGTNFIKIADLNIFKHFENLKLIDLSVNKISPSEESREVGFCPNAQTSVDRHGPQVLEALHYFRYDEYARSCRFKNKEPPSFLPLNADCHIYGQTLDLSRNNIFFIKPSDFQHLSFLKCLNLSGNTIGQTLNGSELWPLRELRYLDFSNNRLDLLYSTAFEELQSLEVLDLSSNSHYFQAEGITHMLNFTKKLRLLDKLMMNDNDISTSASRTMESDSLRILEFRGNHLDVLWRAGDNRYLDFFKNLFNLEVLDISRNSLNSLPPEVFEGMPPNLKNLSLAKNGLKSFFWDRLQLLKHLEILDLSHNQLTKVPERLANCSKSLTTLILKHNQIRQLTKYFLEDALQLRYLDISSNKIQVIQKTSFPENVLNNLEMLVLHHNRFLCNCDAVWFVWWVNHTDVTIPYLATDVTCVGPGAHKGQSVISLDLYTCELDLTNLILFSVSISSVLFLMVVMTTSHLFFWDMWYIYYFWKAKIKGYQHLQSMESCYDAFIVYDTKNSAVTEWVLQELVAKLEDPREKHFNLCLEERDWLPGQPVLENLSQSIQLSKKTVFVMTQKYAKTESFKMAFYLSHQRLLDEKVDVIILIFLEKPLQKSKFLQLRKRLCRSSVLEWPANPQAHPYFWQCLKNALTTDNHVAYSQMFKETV

Toll-like receptor 9 [7] = target: T2, Toll-like receptor 9 (Mus musculus, UniProt Q9EQU3); test: Antagonist activity at TLR9 in mouse splenocytes assessed as inhibition of CpG1585-induced IL6 production; format: cell-based, Splenocyte
T2 sequence (Q9EQU3 whole entry): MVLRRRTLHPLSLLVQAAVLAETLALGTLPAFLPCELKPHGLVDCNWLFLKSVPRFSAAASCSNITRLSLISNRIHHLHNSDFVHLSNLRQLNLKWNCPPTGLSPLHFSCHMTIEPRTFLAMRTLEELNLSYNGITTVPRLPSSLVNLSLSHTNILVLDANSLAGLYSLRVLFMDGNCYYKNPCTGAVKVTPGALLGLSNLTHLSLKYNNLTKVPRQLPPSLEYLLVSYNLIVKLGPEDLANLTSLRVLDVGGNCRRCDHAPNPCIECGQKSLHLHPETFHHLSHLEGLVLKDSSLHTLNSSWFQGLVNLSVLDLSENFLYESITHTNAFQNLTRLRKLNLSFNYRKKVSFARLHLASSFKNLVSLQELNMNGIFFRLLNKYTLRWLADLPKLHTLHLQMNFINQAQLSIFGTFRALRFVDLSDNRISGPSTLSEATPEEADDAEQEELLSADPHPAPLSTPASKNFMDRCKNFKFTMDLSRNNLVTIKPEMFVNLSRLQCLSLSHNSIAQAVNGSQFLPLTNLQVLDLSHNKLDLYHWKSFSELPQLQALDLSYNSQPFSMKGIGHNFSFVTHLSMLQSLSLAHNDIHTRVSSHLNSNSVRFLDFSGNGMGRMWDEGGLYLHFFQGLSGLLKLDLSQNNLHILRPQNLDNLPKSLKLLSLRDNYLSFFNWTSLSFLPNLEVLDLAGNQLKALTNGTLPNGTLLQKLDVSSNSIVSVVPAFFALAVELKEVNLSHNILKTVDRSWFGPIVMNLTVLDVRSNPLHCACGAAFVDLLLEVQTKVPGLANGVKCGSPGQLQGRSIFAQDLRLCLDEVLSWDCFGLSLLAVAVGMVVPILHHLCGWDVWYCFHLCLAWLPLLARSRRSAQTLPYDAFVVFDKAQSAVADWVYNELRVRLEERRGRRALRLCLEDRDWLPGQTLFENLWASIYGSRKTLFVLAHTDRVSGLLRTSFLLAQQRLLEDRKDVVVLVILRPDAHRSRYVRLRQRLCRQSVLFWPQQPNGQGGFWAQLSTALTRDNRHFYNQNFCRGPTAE

Toll-like receptor 9 [8] = target: T3, Toll-like receptor 9 (Homo sapiens, UniProt Q9NR96); test: Antagonist activity at TLR9 in human PBMC assessed as inhibition of ODN2216-induced IFNalpha production; format: tissue-based
T3 sequence (Q9NR96 whole entry): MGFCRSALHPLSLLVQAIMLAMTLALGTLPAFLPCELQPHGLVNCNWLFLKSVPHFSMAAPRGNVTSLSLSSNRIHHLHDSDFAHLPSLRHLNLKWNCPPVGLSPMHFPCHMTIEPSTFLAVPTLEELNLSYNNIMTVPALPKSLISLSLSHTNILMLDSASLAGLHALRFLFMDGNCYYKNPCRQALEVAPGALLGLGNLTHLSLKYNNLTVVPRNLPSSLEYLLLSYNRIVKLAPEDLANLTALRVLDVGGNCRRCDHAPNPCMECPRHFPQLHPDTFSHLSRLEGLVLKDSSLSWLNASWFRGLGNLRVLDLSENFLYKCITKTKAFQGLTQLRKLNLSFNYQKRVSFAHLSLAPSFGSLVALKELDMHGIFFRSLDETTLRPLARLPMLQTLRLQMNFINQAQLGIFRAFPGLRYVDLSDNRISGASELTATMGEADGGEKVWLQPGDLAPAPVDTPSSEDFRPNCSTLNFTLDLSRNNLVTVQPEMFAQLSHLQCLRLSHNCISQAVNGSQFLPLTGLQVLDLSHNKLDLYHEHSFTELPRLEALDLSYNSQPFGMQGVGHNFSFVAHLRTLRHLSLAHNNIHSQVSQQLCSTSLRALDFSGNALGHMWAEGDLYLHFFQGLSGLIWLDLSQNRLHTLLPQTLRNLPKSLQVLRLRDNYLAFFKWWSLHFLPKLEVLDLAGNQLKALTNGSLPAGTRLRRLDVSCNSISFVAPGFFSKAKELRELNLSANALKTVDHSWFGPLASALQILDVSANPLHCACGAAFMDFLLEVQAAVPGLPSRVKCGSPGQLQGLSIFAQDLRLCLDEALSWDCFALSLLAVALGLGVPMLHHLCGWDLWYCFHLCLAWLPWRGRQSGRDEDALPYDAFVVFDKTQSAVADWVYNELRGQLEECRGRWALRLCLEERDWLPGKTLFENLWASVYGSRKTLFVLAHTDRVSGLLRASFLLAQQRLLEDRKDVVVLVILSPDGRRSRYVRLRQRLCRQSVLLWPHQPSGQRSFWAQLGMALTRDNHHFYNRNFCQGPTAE

[9] = Drug uptake in 129Sv mouse at 5 mg/kg, po measured after 2 hrs; format: ADME, organism-based; conditions: in vivo, read-out: Drug uptake

| Structure (SMILES) | AUC [1] [µM·h] | Cmax [2] [nM] | clearance [3] [mL/min/kg] | Vd [4] [L/kg] | half-life [5] [h] | bioavailability [6] [%] | IC50 (Toll-like receptor 7) [nM] | IC50 (Toll-like receptor 9 [7]) [nM] | IC50 (Toll-like receptor 9 [8]) [nM] | concentration at 2 h [9] [nM] |
| --- | --- | --- | --- | --- | --- | --- | --- | --- | --- | --- |
| Cn1nc(-c2ccc(OCC3CCNCC3)c(F)c2)c2cnc(N)nc21 | – | – | – | – | – | – | 220 | 2000 | 3400 | – |
| Cl.Cn1nc(-c2ccc(OCC34CCC(N)(CC3)CC4)c(F)c2)c2cnc(N)nc21 | – | – | – | – | – | – | – | – | – | 300 |
| Cn1nc(-c2ccc(OC[C@H]3CC[C@H](N)CC3)c(F)c2)c2cnc(N)nc21 | – | – | – | – | – | – | 110 | 1900 | 1400 | – |
| Cc1cc(-c2nn(C)c3nc(N)ncc23)cnc1OCC12CCC(N)(CC1)CC2 | 2.98 | 354 | 96 | 15 | 4.1 | 34 | – | – | 3300 | – |
| Cn1nc(-c2ccc(OCC3C[C@H]4CC[C@@H](C3)N4)c(F)c2)c2cnc(N)nc21 (some centres undefined) | – | – | – | – | – | – | 120 | 1200 | 1200 | – |

The remaining lines, values ahead:

| AUC [1] [µM·h] | Cmax [2] [nM] | clearance [3] [mL/min/kg] | Vd [4] [L/kg] | half-life [5] [h] | bioavailability [6] [%] | IC50 (Toll-like receptor 7) [nM] | IC50 (Toll-like receptor 9 [7]) [nM] | IC50 (Toll-like receptor 9 [8]) [nM] | concentration at 2 h [9] [nM] | Structure (SMILES) |
| --- | --- | --- | --- | --- | --- | --- | --- | --- | --- | --- |
| 28.9 | 1400 | 44 | 13.8 | 4.9 | 150 | – | – | – | – | Cc1cc(-c2cnc(OCC34CCC(N)(CC3)CC4)c(C)c2)c2cnn(C)c2n1 |
| – | – | – | – | – | – | 150 | 1200 | 2200 | – | Cn1nc(-c2ccc(OC[C@H]3CC[C@@H](N)CC3)c(F)c2)c2cnc(N)nc21 |
| – | – | – | – | – | – | 93 | 460 | 3400 | – | Cc1cc(-c2ccc(OCC34CCC(N)(CC3)CC4)c(F)c2)c2cnc(N)nn12 |
